Patent US10351553B2, “Potassium channel modulators” (Cadent Therapeutics, Inc., priority 2017, dated 2019)
≈ marks a conversion by molar mass, not a printed value.

Key:
[1] = target: T1, SK2 channels (Homo sapiens, UniProt Q9H2S1); test: Whole-cell patch-clamp of SK2 current in HEK293 cells expressing SK2 channels; format: cell-based; settings: for SK2 potency (SC100): Table 2, concentration that produces doubling of channel current, averages from later experiments
T1 construct: expressed in transfected cells; host or cells: HEK293
Procedure: The biological activity was determined as follows. The ionic current through small-conductance Ca^2+-activated K^+ channels (SK channels, subtype 2) was measured using the whole-cell configuration of the patch-clamp technique in a patch-clamp set-up using HEK293 tissue culture cells expressing SK2 channels as described in Hougaard et al., British Journal of Pharmacology 151, 655-665, May 8, 2007, the entire teachings of which are incorporated herein by reference. In one aspect, a compound is defined to be an SK Positive Allosteric Modulator (PAM) if the compound increases current in this assay, for example, if the SC100 value of the compound is less than or equal to 10 μM as determined by this assay. The SC100 value is defined to be the concentration of compound that increases the basal current by 100%.

[2] = Aqueous (kinetic) solubility, shake-flask, phosphate buffer pH 7.4; format: physicochemical; settings: 23 °C, kinetic from dmso stock, phosphate buffer pH 7.4, 16 hours at room temperature
Procedure: Aqueous solubility (kinetic solubility) tests of the compounds were performed in phosphate buffer saline (pH 7.4) measured by shake-flask method. In this assay, DMSO stock solution of test compound is added to buffer followed by equilibration (shaking), filtration and determination of soluble amount by HPLC-UV Conditions used in the assay are summarized below.

[3] = Metabolic stability in liver microsomes, mouse; format: in vitro ADME; settings: % remaining at 1 hour; 1 μM
Procedure: (§1) Metabolic stability profiling of the compounds was performed in liver microsomes. In this assay, test compound is incubated with liver microsomes in the presence of NADPH for 2 time points at 37° C. At the end of incubation, reaction is quenched with acetonitrile containing internal standard and the parent compound remaining is determined by LC-MS/MS. Conditions used in the assay are summarized below. […], 37° C. • Test concentration: 1 μM in 0.02% DMSO at pH 7.4 (n=2) • NADPH concentration in assay: 1 mM • Liver microsome protein concentration in assay: 0.5 mg/ml • Analysis: LC-MS/MS • Data reported: % Parent Compound Remaining (% PCR) • Reference compounds for high and low clearance are included • Species tested: mouse, rat, dog, monkey, and human

[4] = Metabolic stability in liver microsomes, rat; format: in vitro ADME; settings: % remaining at 1 hour; 1 μM
Procedure: as §1

[5] = Metabolic stability in liver microsomes, monkey; format: in vitro ADME; settings: % remaining at 1 hour; 1 μM
Procedure: as §1

[6] = Metabolic stability in liver microsomes, human; format: in vitro ADME; settings: % remaining at 1 hour; 1 μM
Procedure: as §1

[7] = target: T2, CYP1A2 (Homo sapiens, UniProt P05177); test: CYP inhibition in human liver microsome, CYP1A2 (Phenacetin); format: in vitro ADME
T2 construct: Matrix: Human Liver Microsome (Invitrogen, life technologies); tissue Invitrogen, life technologies; host or cells: human liver microsomes
T2 sequence (P05177 1-516): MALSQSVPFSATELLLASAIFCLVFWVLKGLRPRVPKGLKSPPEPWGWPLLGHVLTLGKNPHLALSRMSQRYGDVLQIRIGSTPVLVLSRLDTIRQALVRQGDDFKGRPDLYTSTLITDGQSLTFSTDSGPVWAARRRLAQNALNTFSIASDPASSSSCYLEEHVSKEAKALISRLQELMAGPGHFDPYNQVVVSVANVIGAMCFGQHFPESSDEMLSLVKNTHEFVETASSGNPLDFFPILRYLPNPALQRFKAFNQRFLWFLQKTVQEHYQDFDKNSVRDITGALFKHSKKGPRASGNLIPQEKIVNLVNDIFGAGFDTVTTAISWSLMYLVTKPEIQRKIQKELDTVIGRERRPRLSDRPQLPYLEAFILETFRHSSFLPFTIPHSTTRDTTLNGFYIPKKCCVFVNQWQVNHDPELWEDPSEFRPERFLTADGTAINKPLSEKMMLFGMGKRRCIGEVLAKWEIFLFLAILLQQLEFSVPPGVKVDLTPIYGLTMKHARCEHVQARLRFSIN
Procedure: (§2) Compounds described herein were tested for CYP inhibition across 5 isoforms (3A4, 2D6, 2C9, 2C19 & 1A2). In this assay, CYP isoform specific substrates are incubated with human liver microsome (HLM) in the presence of test compounds, and metabolite formation is determined. Percentage inhibition of metabolite formation at different concentrations of test compound is calculated and IC50 is determined. Conditions used in the assay are summarized below. Results are shown in Table 2. • Test drug (Inhibitor) Concentration: 8 different concentrations (100 μM to 0.005 μM) • Matrix: Human Liver Microsome (Invitrogen, life technologies) • Specific probe substrates will be used for the isoforms as given below: • CYP3A4: Midazolam • CYP2D6: Bufuralol • CYP2C9: Diclofenac • CYP2C19: Mephynitoin • CYP1A2: Phenacetin • Cofactors: NADPH (1 mM final in assay) • Sample Analysis: LC-MS/MS (metabolites) • Specific reference inhibitors included in all assays (Ketoconazole/Quinidine/Sulphaphenazole/Ticlopidine/Furafylline) • Buffer: Potassium Phosphate Buffer (100 mM) pH 7.4 • DMSO level in assay: 0.1% • Data analysis: % Inhibition over control

[8] = target: T3, CYP3A4 (Homo sapiens, UniProt P08684); test: CYP inhibition in human liver microsome, CYP3A4 (Midazolam); format: in vitro ADME
T3 construct: Matrix: Human Liver Microsome (Invitrogen, life technologies); tissue Invitrogen, life technologies; host or cells: human liver microsomes
Procedure: as §2

[9] = target: T4, CYP2D6 (Homo sapiens, UniProt P10635); test: CYP inhibition in human liver microsome, CYP2D6 (Bufuralol); format: in vitro ADME
T4 construct: Matrix: Human Liver Microsome (Invitrogen, life technologies); tissue Invitrogen, life technologies; host or cells: human liver microsomes
Procedure: as §2

[10] = Oral bioavailability in rat; format: in vivo; settings: male, Sprague Dawley, plasma; 10 mg/kg PO, 0.5 mg/kg IV in rat
Text: Oral bioavailability data was collected in rat as follows.

T4 sequence (P10635 whole entry): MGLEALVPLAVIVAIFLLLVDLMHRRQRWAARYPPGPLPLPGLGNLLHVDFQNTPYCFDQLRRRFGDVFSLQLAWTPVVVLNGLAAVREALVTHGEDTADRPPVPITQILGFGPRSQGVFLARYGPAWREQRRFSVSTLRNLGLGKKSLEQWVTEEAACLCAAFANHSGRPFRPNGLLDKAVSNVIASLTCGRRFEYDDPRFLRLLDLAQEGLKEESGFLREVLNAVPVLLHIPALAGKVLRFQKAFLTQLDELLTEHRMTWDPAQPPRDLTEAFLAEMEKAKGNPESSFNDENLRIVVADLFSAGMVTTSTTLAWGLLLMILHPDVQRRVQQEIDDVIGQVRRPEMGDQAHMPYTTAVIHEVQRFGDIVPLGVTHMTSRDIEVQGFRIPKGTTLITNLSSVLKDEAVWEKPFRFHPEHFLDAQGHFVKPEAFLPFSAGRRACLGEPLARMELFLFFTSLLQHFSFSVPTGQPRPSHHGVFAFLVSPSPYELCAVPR
T3 sequence (P08684 whole entry): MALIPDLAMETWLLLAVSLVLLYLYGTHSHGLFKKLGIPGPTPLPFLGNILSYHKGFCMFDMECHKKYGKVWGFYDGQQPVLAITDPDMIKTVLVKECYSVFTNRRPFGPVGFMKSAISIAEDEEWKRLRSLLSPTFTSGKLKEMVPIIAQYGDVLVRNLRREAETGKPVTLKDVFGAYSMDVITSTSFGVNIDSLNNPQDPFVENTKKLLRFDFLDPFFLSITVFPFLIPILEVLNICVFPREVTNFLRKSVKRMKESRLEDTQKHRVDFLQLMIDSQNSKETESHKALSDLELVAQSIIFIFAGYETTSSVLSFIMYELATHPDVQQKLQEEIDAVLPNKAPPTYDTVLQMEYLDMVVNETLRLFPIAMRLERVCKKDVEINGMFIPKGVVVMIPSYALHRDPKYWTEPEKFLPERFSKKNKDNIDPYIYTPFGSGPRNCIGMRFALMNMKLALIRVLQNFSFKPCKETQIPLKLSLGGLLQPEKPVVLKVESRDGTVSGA

| SMILES | SK2 potency (SC100) [1] [µM] | solubility kinetic at 16 h [2] [mg/mL] | Liver microsome stability, Mouse [3] [%] | Liver microsome stability, Rat [4] [%] | Liver microsome stability, Monkey [5] [%] | Liver microsome stability, Human [6] [%] | IC50 [7] [µM] | IC50 [8] [µM] | IC50 [9] [µM] | bioavailability [10] [%] | Measured SK2 SC100 ([1]; Table 1, concentration that increases the basal current by 100%) [µM] |
| --- | --- | --- | --- | --- | --- | --- | --- | --- | --- | --- | --- |
| Cc1cc(NC2CCCCC2)nc(-n2nc(C)cc2C)n1 [Comparator A, reference compound] | 1.38 | 0.017 (≈ 59.6 µM) | 1 | 1 | 1 | 50 | 0.64 | > 10 | 0.79 | 5 |  |
| Cc1ccn(-c2nc(NC3CCC(F)(F)CC3)cc(N3CCOCC3)n2)n1 [Compound 1, N-(4,4-difluorocyclohexyl)-2-(3-methyl-1H-pyrazol-1-yl)-6-morpholinopyrimidin-4-amine] | 0.4 | 0.074 (≈ 196 µM) | 47 | 60 | 46 | 84 | > 10 | > 10 | > 10 | 81 | 0.5 |
